Laboratory results as given in US20240376084A1, “INHIBITORS OF ALPHA-HEMOLYSIN OF STAPHYLOCOCCUS AUREUS” (Helmholtz-Zentrum Fur Infektionsforschung GmbH, priority 2021, published 2024).

Tests used:
[1] = target: hemolysin alpha from Staphylococcus aureus (Staphylococcus aureus, UniProt P09616); experiment: cell-based
[2] = target: S. aureus Alpha hemolysin (Staphylococcus aureus, UniProt P09616); experiment: cell-based
Chain of S. aureus Alpha hemolysin (P09616 27-319 limits assumed): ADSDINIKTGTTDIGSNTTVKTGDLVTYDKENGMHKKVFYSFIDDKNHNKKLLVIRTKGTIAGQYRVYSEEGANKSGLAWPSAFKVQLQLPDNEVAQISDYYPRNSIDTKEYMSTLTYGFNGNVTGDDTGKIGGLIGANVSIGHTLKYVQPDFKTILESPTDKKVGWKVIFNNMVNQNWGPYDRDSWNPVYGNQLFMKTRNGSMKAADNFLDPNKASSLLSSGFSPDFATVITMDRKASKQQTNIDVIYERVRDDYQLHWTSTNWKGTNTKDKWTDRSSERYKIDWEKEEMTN

Chain of hemolysin alpha from Staphylococcus aureus (P09616 27-319 limits assumed): as above

SMILES	IC50 [1] [nM]	EC50 ([2]; A549-LDH Assay activity) [nM]	EC50 [1] [nM]	EC50 ([2]; LDH Assay EC50) [nM]
Cc1cc2[nH]c(=O)c(=O)[nH]c2cc1S(=O)(=O)Nc1ccc(-c2ccccc2C(F)(F)F)c(Cl)c1 [Compound 139, N-(2-chloro-2′-(trifluoromethyl)-[1,1′-biphenyl]-4-yl)-7-methyl-2,3-dioxo-1,2,3,4-tetrahydroquinoxaline-6-sulfonamide]	100 to 1000	1000 to 6000	–	–
C#Cc1cc(NS(=O)(=O)c2cc3[nH]c(=O)c(=O)[nH]c3cc2C)ccc1-c1ccc(C#N)cc1 [Compound 253, N-[4-(4-cyanophenyl)-3-ethynyl-phenyl]-7-methyl-2,3-dioxo-1,4-dihydroquinoxaline-6-sulfonamide]	–	30 to 100	< 30	–
Cc1cc2[nH]c(=O)c(=O)[nH]c2cc1S(=O)(=O)Nc1ccc(Cl)cc1 [Compound 177, N-(4-chlorophenyl)-7-methyl-2,3-dioxo-1,2,3,4-tetrahydroquinoxaline-6-sulfonamide]	100 to 1000	100 to 1000	–	–
Cc1cc(NS(=O)(=O)c2cc3[nH]c(=O)c(=O)[nH]c3cc2Cl)ccc1-c1ccccc1 [Compound 45, 7-chloro-N-(2-methyl-[1,1′-biphenyl]-4-yl)-2,3-dioxo-1,2,3,4-tetrahydroquinoxaline-6-sulfonamide]	30 to 100	30 to 100	–	–
O=c1[nH]c2ccc(S(=O)(=O)Nc3ccc(OC(F)(F)F)cc3)cc2[nH]c1=O [drawing 469 (R^2 = H), reference compound]	–	–	290	241
Cc1cc2[nH]c(=O)c(=O)[nH]c2cc1S(=O)(=O)Nc1ccc(-c2csc(C#N)c2)c(Cl)c1 [Compound 290, N-[3-chloro-4-(5-cyano-3-thienyl)phenyl]-7-methyl-2,3-dioxo-1,4-dihydroquinoxaline-6-sulfonamide]	–	30 to 100	< 30	–
O=c1[nH]c2cc(Cl)c(S(=O)(=O)Nc3ccc(C(F)(F)F)cc3)cc2[nH]c1=O [Compound 93, 7-chloro-2,3-dioxo-N-(4-(trifluoromethyl)phenyl)-1,2,3,4-tetrahydroquinoxaline-6-sulfonamide]	100 to 1000	100 to 1000	–	–
Cc1cc2[nH]c(=O)c(=O)[nH]c2cc1S(=O)(=O)Nc1cc(C)c(-c2ccccc2Cl)c(C)c1 [Compound 104, N-(2′-chloro-2,6-dimethyl-[1,1′-biphenyl]-4-yl)-7-methyl-2,3-dioxo-1,2,3,4-tetrahydroquinoxaline-6-sulfonamide]	100 to 1000	100 to 1000	–	–
Cc1cc2[nH]c(=O)c(=O)[nH]c2cc1S(=O)(=O)Nc1ccc(-c2ccc(F)c(Cl)c2)c(Cl)c1 [Compound 11, N-(2,3′-dichloro-4′-fluoro-[1,1′-biphenyl]-4-yl)-7-methyl-2,3-dioxo-1,2,3,4-tetrahydroquinoxaline-6-sulfonamide]	< 30	100 to 1000	–	–
COc1cc(OC)cc(-c2ccc(NS(=O)(=O)c3cc4[nH]c(=O)c(=O)[nH]c4cc3C)cc2Cl)c1 [Compound 258, N-[3-chloro-4-(3,5-dimethoxyphenyl)phenyl]-7-methyl-2,3-dioxo-1,4-dihydroquinoxaline-6-sulfonamide]	–	100 to 1000	100 to 1000	–
Cc1cc2[nH]c(=O)c(=O)[nH]c2cc1S(=O)(=O)Nc1ccc(-c2cccc(CO)c2)c(Cl)c1 [Compound 333, N-[3-chloro-4-[3-(hydroxymethyl)phenyl]phenyl]-7-methyl-2,3-dioxo-1,4-dihydroquinoxaline-6-sulfonamide]	–	100 to 1000	30 to 100	–
O=c1[nH]c2cc(F)c(S(=O)(=O)Nc3ccc(-c4ccccc4)c(Cl)c3)cc2[nH]c1=O [Compound 40, N-(2-chloro-[1,1′-biphenyl]-4-yl)-7-fluoro-2,3-dioxo-1,2,3,4-tetrahydroquinoxaline-6-sulfonamide]	30 to 100	100 to 1000	–	–
Cc1cc2[nH]c(=O)c(=O)[nH]c2cc1S(=O)(=O)Nc1ccc(-n2ccnc2)c(Cl)c1 [Compound 285, N-(3-chloro-4-imidazol-1-yl-phenyl)-7-methyl-2,3-dioxo-1,4-dihydroquinoxaline-6-sulfonamide]	–	100 to 1000	100 to 1000	–
COc1cc2[nH]c(=O)c(=O)[nH]c2cc1S(=O)(=O)Nc1ccc(SC(F)(F)F)cc1 [Compound 399, 7-methoxy-2,3-dioxo-N-[4-(trifluoromethylsulfanyl)phenyl]-1,4-dihydroquinoxaline-6-sulfonamide]	–	100 to 1000	1000 to 3500	–
CCOC(=O)c1ccccc1-c1ccc(NS(=O)(=O)c2cc3[nH]c(=O)c(=O)[nH]c3cc2C)cc1Cl [Compound 138, ethyl 2′-chloro-4′-((7-methyl-2,3-dioxo-1,2,3,4-tetrahydroquinoxaline)-6-sulfonamido)-[1,1′-biphenyl]-2-carboxylate]	1000 to 3500	1000 to 6000	–	–
Cc1cc2[nH]c(=O)c(=O)[nH]c2cc1S(=O)(=O)Nc1ccc(-c2ccc(OC3CC3)cc2)c(Cl)c1 [Compound 268, N-[3-chloro-4-[4-(cyclopropoxy)phenyl]phenyl]-7-methyl-2,3-dioxo-1,4-dihydroquinoxaline-6-sulfonamide]	–	100 to 1000	30 to 100	–
Cc1cc2[nH]c(=O)c(=O)[nH]c2cc1S(=O)(=O)Nc1ccc(-c2ccc3[nH]ncc3c2)c(Cl)c1 [Compound 273, N-[3-chloro-4-(1H-indazol-5-yl)phenyl]-7-methyl-2,3-dioxo-1,4-dihydroquinoxaline-6-sulfonamide]	–	100 to 1000	30 to 100	–
Cc1cc2[nH]c(=O)c(=O)[nH]c2cc1S(=O)(=O)Nc1ccc(-c2ccccc2)cc1 [Compound 61, N-([1,1′-biphenyl]-4-yl)-7-methyl-2,3-dioxo-1,2,3,4-tetrahydroquinoxaline-6-sulfonamide]	< 30	30 to 100	–	–
Cc1cc(C2CC2)ccc1NS(=O)(=O)c1cc2[nH]c(=O)c(=O)[nH]c2cc1C [Compound 110, N-(4-cyclopropyl-2-methylphenyl)-7-methyl-2,3-dioxo-1,2,3,4-tetrahydroquinoxaline-6-sulfonamide]	100 to 1000	30 to 100	–	–
Cc1cc2[nH]c(=O)c(=O)[nH]c2cc1S(=O)(=O)Nc1ccc(-c2ccc3c(c2)NC(=O)C3)c(Cl)c1 [Compound 350, N-[3-chloro-4-(2-oxoindolin-6-yl)phenyl]-7-methyl-2,3-dioxo-1,4-dihydroquinoxaline-6-sulfonamide]	–	30 to 100	30 to 100	–
O=c1[nH]c2cc(Cl)c(S(=O)(=O)Nc3ccc(-c4cccc(Cl)c4)c(Cl)c3)cc2[nH]c1=O [Compound 35, 7-chloro-N-(2,3′-dichloro-[1,1′-biphenyl]-4-yl)-2,3-dioxo-1,2,3,4-tetrahydroquinoxaline-6-sulfonamide]	< 30	100 to 1000	–	–
Cc1cc2[nH]c(=O)c(=O)[nH]c2cc1S(=O)(=O)Nc1ccc(-c2cccc(CN)c2)c(Cl)c1 [Compound 342, N-[4-[3-(aminomethyl)phenyl]-3-chloro-phenyl]-7-methyl-2,3-dioxo-1,4-dihydroquinoxaline-6-sulfonamide]	–	100 to 1000	1000 to 3500	–
Cc1cc2[nH]c(=O)c(=O)[nH]c2cc1S(=O)(=O)Nc1ccc(-c2ccc3[nH]c(=O)[nH]c3c2)c(Cl)c1 [Compound 294, N-[3-chloro-4-(2-oxo-1,3-dihydrobenzimidazol-5-yl)phenyl]-7-methyl-2,3-dioxo-1,4-dihydroquinoxaline-6-sulfonamide]	–	100 to 1000	100 to 1000	–
